Measured values published in patent US10906888B2, “Pyrimidine carboxamides as inhibitors of Vanin-1 enzyme” (Pfizer Inc., priority 2016, dated 2021).

Molecular target: human vanin-1 (Homo sapiens (Human), UniProt O95497)
Experiment: Human Vanin-1 Enzyme Assay 1
Assay type: biochemical
Conditions: 25 pM human vanin-1, 50 uM pantetheine 7-amino-4-trifluoromethylcoumarin substrate
Method: Human Vanin-1Enzyme Assay 1.
The in vitro assay measures enzymatic cleavage of the fluorescently-labeled vanin substrate, pantetheine 7-amino-4-trifluoromethylcoumarin, by human vanin-1.
The vanin-1 protein was prepared in-house from a construct expressing the extracellular domain of human vanin-1 (GenBank ID NM_004666) preceded N-terminally by the honey bee melittin signal peptide, a GSG linker sequence, a His6× tag and a FLAG tag. The secreted, soluble enzyme was purified from the conditioned medium from a CHO cell line stably expressing the resulting protein. Enzyme purification was performed through sequential Ni NTA and size-exclusion chromatography steps.
Intermediate concentrations were prepared by diluting in DMSO in a four-fold series for a total of 11 data points.
To begin the assay 100 nL was transferred from the compound plate to the assay plate. Next, 15 μL of the vanin-1 working solution were transferred to the assay plate. The inhibitor and enzyme were incubated at room temperature for 30 minutes. The enzyme reaction was then initiated by the addition of 5 μL of 200 μM pantetheine 7-amino-4-trifluoromethylcoumarin prepared in assay buffer. […] The final concentration of DMSO was 0.5%.

Chain of human vanin-1 (O95497 22-491): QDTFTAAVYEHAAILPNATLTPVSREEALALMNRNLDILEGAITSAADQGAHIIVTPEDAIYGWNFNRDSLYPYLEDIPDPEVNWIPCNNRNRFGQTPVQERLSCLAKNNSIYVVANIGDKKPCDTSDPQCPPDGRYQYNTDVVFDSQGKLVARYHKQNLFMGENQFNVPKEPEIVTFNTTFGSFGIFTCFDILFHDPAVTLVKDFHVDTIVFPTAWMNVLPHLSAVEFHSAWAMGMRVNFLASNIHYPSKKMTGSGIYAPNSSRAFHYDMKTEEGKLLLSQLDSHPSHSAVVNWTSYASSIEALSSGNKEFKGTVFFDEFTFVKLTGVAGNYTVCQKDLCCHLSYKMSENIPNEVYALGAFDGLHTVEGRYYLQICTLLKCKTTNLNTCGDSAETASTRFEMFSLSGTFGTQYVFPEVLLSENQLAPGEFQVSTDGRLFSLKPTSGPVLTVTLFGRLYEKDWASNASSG

## CO[C@@H]1CN(C(=O)c2cnc(NC3(c4cncnc4)CC3)nc2)C[C@H]1F [Example 84]
  IC50: 0.0754 µM

## O=C(c1cnc(NCc2cccnc2)nc1)N1[C@@H]2CC[C@H]1C[C@@H](O)C2 [Example 28]
  IC50: 1.55 µM

## O=C(c1cnc(NC2(c3cncnc3)CC2)nc1)N1C[C@@H]2CCCC[C@]2(CO)C1 (relative stereo) [Example 61]
  IC50: 0.00251 µM

## O=C(c1cnc(NC2(c3ncccn3)CC2)nc1)N1CCC2(CCOCC2)C1 [Example 178]
  IC50: 0.00218 µM

## O=C(c1cnc(NC2(c3cncnc3)CC2)nc1)N1C[C@H](O)C[C@H](C(F)(F)F)C1 [Example 89]
  IC50: 0.035 µM

## Cc1ccc(C2(Nc3ncc(C(=O)N4CCC5(CCOCC5)C4)cn3)CC2)cn1 [Example 175]
  IC50: 0.00024 µM

## O=C(c1cnc(NCc2cnc(C(F)(F)F)nc2)nc1)N1CC2(CCOCC2)C1 [Example 169]
  IC50: 0.158 µM

## CCC1(OC)CCN(C(=O)c2cnc(NC3(c4cncnc4)CC3)nc2)C1 (stereo not shown) [Example 192]
  IC50: 0.00221 µM

## Cc1cc(C2CCN(C(=O)c3cnc(NC4(c5cncnc5)CC4)nc3)C2)[nH]n1 (stereo not shown) [Example 65]
  IC50: 0.00182 µM

## Cc1cnc(CNc2ncc(C(=O)N3CC4(CCOCC4)C3)cn2)cn1 [Example 165]
  IC50: 0.0263 µM

## O=C(c1cnc(NC2(c3cncnc3)CC2)nc1)N1CCC2(CCCC2)CC1 [Example 49]
  IC50: 0.0075 µM

## O=C(c1cnc(NCc2cncnc2)nc1)N1CCCCC1 [Example 187]
  IC50: 0.0837 µM

## O=C(c1cnc(NC2(c3cncnc3)CC2)nc1)N1CC2CCCC2C1 (stereo not shown) [Example 69]
  IC50: 0.00185 µM

## CC(C)[C@H]1C[C@H](O)CN(C(=O)c2cnc(NC3(c4cncnc4)CC3)nc2)C1 [Example 72]
  IC50: 0.148 µM

## CCC1(CO)CCN(C(=O)c2cnc(NC3(c4cncnc4)CC3)nc2)C1 (single isomer, unassigned) [Example 202]
  IC50: 0.0143 µM

## CC1(CO)CCN(C(=O)c2cnc(NC3(c4cncnc4)CC3)nc2)CC1 [Example 83]
  IC50: 0.0551 µM

## C[C@@H]1COCCN1C(=O)c1cnc(NC2(c3cncnc3)CC2)nc1 [Example 103]
  IC50: 0.59 µM

## CO[C@H]1CCN(C(=O)c2cnc(NC3(c4cncnc4)CC3)nc2)C1 [Example 51]
  IC50: 0.0975 µM

## CN1CC2CN(C(=O)c3cnc(NCc4cnccn4)nc3)CC2C1 (stereo not shown) [Example 123]
  IC50: 11.4 µM

## CC1(O)CCN(C(=O)c2cnc(NCc3cccnc3)nc2)CC1 [Example 9]
  IC50: 0.0481 µM

## O=C(c1cnc(NC2(c3cncnc3)CC2)nc1)N1CCC(C(F)(F)F)CC1 [Example 63]
  IC50: 0.421 µM

## Cc1nc(NCc2cnccn2)ncc1C(=O)N1CCC2(CCOCC2)C1 [Example 139]
  IC50: > 17.6 µM

## C[C@H](Nc1ncc(C(=O)N2CCN3CC(F)(F)C[C@H]3C2)cn1)c1cnccn1 [Example 118]
  IC50: 0.00464 µM

## CS(=O)(=O)C1CCCN(C(=O)c2cnc(NC3(c4cncnc4)CC3)nc2)C1 (stereo not shown) [Example 198]
  IC50: 0.0205 µM

## CCOCC1(F)CCN(C(=O)c2cnc(NC3(c4cncnc4)CC3)nc2)CC1 [Example 92]
  IC50: 0.0509 µM

## O=C(c1cnc(NC2(c3cncnc3)CC2)nc1)N1CCN2C[C@@H](F)C[C@H]2C1 [Example 35]
  IC50: 0.00542 µM

## O=C(c1cnc(NC2(c3cncnc3)CC2)nc1)N1CCN2CCCCCC2C1 (stereo not shown) [Example 41]
  IC50: 0.045 µM

## C[C@H](Nc1ncc(C(=O)N2CCN3C[C@@H](F)C[C@H]3C2)cn1)c1cnccn1 [Example 121]
  IC50: 0.00395 µM

## O=C(c1cnc(NC2(c3cncnc3)CC2)nc1)N1CCCC[C@H]1CCO [Example 80]
  IC50: 0.545 µM

## O=C(c1cnc(NC2(c3cncnc3)CC2)nc1)N1CCC(O)(C(F)(F)F)CC1 [Example 90]
  IC50: 0.348 µM

## NC(=O)[C@@H]1CCCN1C(=O)c1cnc(NCc2cccnc2)nc1 [Example 32]
  IC50: 20 µM

## O=C(c1cnc(NC2(c3cncnc3)CC2)nc1)N1CC2C(C1)C2C(F)(F)F (stereo not shown) [Example 64]
  IC50: 0.1 µM

## C[C@H](Nc1ncc(C(=O)N2C[C@H](O)[C@@H](N3CCOCC3)C2)cn1)c1cnccn1 [Example 113]
  IC50: 0.508 µM

## Cc1ccc(C(C)Nc2ncc(C(=O)N3CCC4(CCOCC4)C3)cn2)nc1 (stereo not shown) [Example 161]
  IC50: 0.00806 µM

## O=C(c1cnc(NC2(c3cncnc3)COC2)nc1)N1CC2(CCOCC2)C1 [Example 134]
  IC50: 0.000504 µM

## O=C(c1cnc(NCc2cccnc2)nc1)N1CCC(CO)C1 (stereo not shown) [Example 11]
  IC50: 0.0817 µM

## Cc1ccc([C@@H](C)Nc2ncc(C(=O)N3CCC4(CCOCC4)C3)cn2)cn1 [Example 141]
  IC50: 0.0873 µM

## CCC1(C)CCN(C(=O)c2cnc(NC3(c4cncnc4)CC3)nc2)CC1 [Example 46]
  IC50: 0.00629 µM

## COC1CCOC2(CCN(C(=O)c3cnc(NC4(c5cncnc5)CC4)nc3)CC2)C1 (stereo not shown) [Example 91]
  IC50: 0.316 µM

## O=C(c1cnc(NC2(c3cncnc3)CC2)nc1)N1CC2(CCOCC2)C1 [Example 189]
  IC50: 0.000867 µM

## O=C(c1cnc(NCc2cccnc2)nc1)N1Cc2ccccc2C1 [Example 19]
  IC50: 0.407 µM

## CO[C@@H]1CCN(C(=O)c2cnc(NC3(c4cncnc4)CC3)nc2)C1 [Example 79]
  IC50: 0.0213 µM

## O=C(c1cnc(NCc2cccnc2)nc1)N1CCC(O)C1 (stereo not shown) [Example 25]
  IC50: 1.04 µM

## C[C@H](Nc1ncc(C(=O)N2CC3(CCOCC3)C2)cn1)c1cncnc1 [Example 151]
  IC50: 0.000955 µM

## CC1(C)CCN(C(=O)c2cnc(NC3(c4cncnc4)CC3)nc2)C1 [Example 191]
  IC50: 0.00157 µM

## CCC1(CO)CCN(C(=O)c2cnc(NCc3cccnc3)nc2)C1 (stereo not shown) [Example 4]
  IC50: 0.00858 µM

## O=C(c1cnc(NC2(c3cncnc3)CC2)nc1)N1C[C@@H](CO)[C@H](C(F)(F)F)C1 [Example 53]
  IC50: 0.0122 µM

## CCC1(CO)CCN(C(=O)c2cnc(NC3(c4cncnc4)CC3)nc2)C1 (single isomer, unassigned) [Example 201]
  IC50: 0.000582 µM

## C[C@H](Nc1ncc(C(=O)N2CCC3(CN(C)C3)C2)cn1)c1cnccn1 [Example 122]
  IC50: 0.0439 µM

## C[C@H]1CN(C(=O)c2cnc(NC3(c4cncnc4)CC3)nc2)C[C@]1(C)CO (relative stereo) [Example 62]
  IC50: 0.00392 µM

## O=C(c1cnc(NC2(c3cncnc3)CC2)nc1)N1CCOC2(CCCC2)C1 [Example 52]
  IC50: 0.0603 µM

## O=C(c1cnc(NC2(c3cncnc3)CC2)nc1)N1CCC2(CCO2)CC1 [Example 34]
  IC50: 0.0472 µM

## O=C(c1cnc(OCc2cncnc2)nc1)N1CCC2(CCOCC2)C1 [Example 203, 8-oxa-2-azaspiro[4.5]dec-2-yl[2-(pyrimidin-5-ylmethoxy)pyrimidin-5-yl]methanone]
  IC50: 1.09 µM

## O=C(c1cnc(NCc2cccnc2)nc1)N1CCC(F)(CO)CC1 [Example 17]
  IC50: 0.328 µM

## CC1COCCN(C(=O)c2cnc(NC3(c4cncnc4)CC3)nc2)C1 (stereo not shown) [Example 38]
  IC50: 0.0626 µM

## O=C(c1cnc(NC2(c3cncnc3)CC2)nc1)N1CCC2(CCCO2)CC1 [Example 56]
  IC50: 0.0249 µM

## O=C(c1cnc(NCc2cnccn2)nc1)N1CCN2C[C@@H](F)C[C@H]2C1 [Example 110]
  IC50: 0.171 µM

## O=C(c1cnc(NCc2cccnc2)nc1)N1CCn2ccnc2C1 [Example 8]
  IC50: 0.0371 µM

## O=C(c1cnc(NC2(c3ccccn3)CC2)nc1)N1CCC2(CCOCC2)C1 [Example 177]
  IC50: 0.000551 µM

## C[C@H]1CN(C(=O)c2cnc(NC3(c4cncnc4)CC3)nc2)CCO1 [Example 107]
  IC50: 0.0386 µM

## CC(Nc1ncc(C(=O)N2CCC3(CCOCC3)C2)cn1)c1cncnc1 (stereo not shown) [Example 183]
  IC50: 0.000745 µM

## O=C(c1cnc(NC2(c3cnccn3)COC2)nc1)N1CCC2(CCOCC2)C1 [Example 132]
  IC50: 0.000349 µM

## CC(C)(O)C1CCN(C(=O)c2cnc(NC3(c4cncnc4)CC3)nc2)CC1 [Example 78]
  IC50: 1.6 µM

## O=C(c1cnc(NC2(c3cncnc3)CC2)nc1)N1CCCOCC1 [Example 42]
  IC50: 0.0351 µM

## O=C(c1cnc(NCc2cnccn2)nc1)N1CCN2CC(F)(F)C[C@H]2C1 [Example 116]
  IC50: 0.113 µM

## Cc1cnc(C(C)(C)Nc2ncc(C(=O)N3CC4(CCOCC4)C3)cn2)cn1 [Example 180]
  IC50: 0.000196 µM

## Cc1nc(NC2(c3cncnc3)CC2)ncc1C(=O)N1CCC2(CCOCC2)C1 [Example 136]
  IC50: 2.33 µM

## O=C(c1cnc(NC2(c3cncnc3)CC2)nc1)N1CCC(C(F)(F)F)C1 (single isomer, unassigned) [Example 194]
  IC50: 0.0202 µM

## O=C(c1cnc(NCc2cnccn2)nc1)N1C[C@H](O)[C@@H](N2CCOCC2)C1 [Example 115]
  IC50: 16 µM

## O=C(c1cnc(NCc2cnccn2)nc1)N1CCN2CCC[C@H]2C1 [Example 129]
  IC50: 0.0659 µM

## Cc1ncc(C(C)Nc2ncc(C(=O)N3CC4(CCOCC4)C3)cn2)cn1 (stereo not shown) [Example 160]
  IC50: 0.00284 µM

## COCC1COCCN(C(=O)c2cnc(NC3(c4cncnc4)CC3)nc2)C1 (stereo not shown) [Example 85]
  IC50: 0.167 µM

## O=C(c1cnc(NCc2cnc(C(F)(F)F)nc2)nc1)N1CCC2(CCOCC2)C1 [Example 168]
  IC50: 0.192 µM

## CN1C[C@@H]2C[C@H]1CN2C(=O)c1cnc(NCc2cnccn2)nc1 [Example 112]
  IC50: > 18.9 µM

## O=C(c1cnc(NCc2cnccn2)nc1)N1CCN2C[C@H](O)C[C@H]2C1 [Example 111]
  IC50: 3.59 µM

## O=C(c1cnc(NC2(c3cncnc3)CC2)nc1)N1CCC(C(F)F)CC1 [Example 81]
  IC50: 0.102 µM

## O=C(c1cnc(NCc2cccnc2)nc1)N1CC(O)(C2CC2)C1 [Example 5]
  IC50: 0.016 µM

## CCC1COC(=O)N1C1CCN(C(=O)c2cnc(NC3(c4cncnc4)CC3)nc2)CC1 (stereo not shown) [Example 36]
  IC50: 1 µM

## O=C(c1cnc(NCc2cccnc2)nc1)N1CC(O)C1 [Example 16]
  IC50: 0.323 µM
